Measurements from PubChem BioAssay AID2060504 (Molecular Pharmacology Branch, DTP, NCI, 2025).

Tested on: 636577-100-R-J1-PDC complex spheroid viability
Experiment: Anticancer human tumor 636577-100-R-J1-PDC patient-derived endometrial adenocarcinoma cell line growth inhibition [GQUAD]
Conditions: for IC50: curve of first compound; for viability, T/C: stronger effect = lower value
How it was run: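 Tumor cells were grown as complex spheroids with HUVEC endothelial cells and mesenchymal stem cells as stroma. G-quadruplex stabilizers were combined with targeted agents over half-log dilutions from near the clinical Cmax, or from 10 microM.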

[1] = second compound 0.0316 µM, first compound 0.0316 µM
[2] = second compound 0.0316 µM, first compound 0.1 µM
[3] = second compound 0.0316 µM, first compound 0.316 µM
[4] = second compound 0.0316 µM, first compound 1 µM
[5] = second compound 0.0316 µM, first compound 3.16 µM
[6] = second compound 0.0316 µM, first compound 10 µM
[7] = second compound 0.1 µM, first compound 0.0316 µM
[8] = second compound 0.1 µM, first compound 0.1 µM
[9] = second compound 0.1 µM, first compound 0.316 µM
[10] = second compound 0.1 µM, first compound 1 µM
[11] = second compound 0.1 µM, first compound 3.16 µM
[12] = second compound 0.1 µM, first compound 10 µM
[13] = second compound 0.316 µM, first compound 0.0316 µM
[14] = second compound 0.316 µM, first compound 0.1 µM
[15] = second compound 0.316 µM, first compound 0.316 µM
[16] = second compound 0.316 µM, first compound 1 µM
[17] = second compound 0.316 µM, first compound 3.16 µM
[18] = second compound 0.316 µM, first compound 10 µM
[19] = second compound 1 µM, first compound 0.0316 µM
[20] = second compound 1 µM, first compound 0.1 µM
[21] = second compound 1 µM, first compound 0.316 µM
[22] = second compound 1 µM, first compound 1 µM
[23] = second compound 1 µM, first compound 3.16 µM
[24] = second compound 1 µM, first compound 10 µM
[25] = second compound 3.16 µM, first compound 0.0316 µM
[26] = second compound 3.16 µM, first compound 0.1 µM
[27] = second compound 3.16 µM, first compound 0.316 µM
[28] = second compound 3.16 µM, first compound 1 µM
[29] = second compound 3.16 µM, first compound 3.16 µM
[30] = second compound 3.16 µM, first compound 10 µM
[31] = second compound 10 µM, first compound 0.0316 µM
[32] = second compound 10 µM, first compound 0.1 µM
[33] = second compound 10 µM, first compound 0.316 µM
[34] = second compound 10 µM, first compound 1 µM
[35] = second compound 10 µM, first compound 3.16 µM
[36] = second compound 10 µM, first compound 10 µM
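Note: viability read after seven days of drug exposure.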
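Throughout, for viability, T/C: luminescence signal used as a proxy for viable cells; 100% = DMSO vehicle control wells.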

COc1ccc([C@@H](O)c2cc(-c3ncnc4cc(N5CCOCC5)ccc34)c(F)cc2Cl)nn1 + Cc1[nH]c2ccc(F)cc2c1-c1nc2c3cccnc3c3ncccc3c2[nH]1
IC50 (second compound 0.0316 µM): 670 nM | IC50 (second compound 0.1 µM): 586 nM | IC50 (second compound 0.316 µM): 682 nM | IC50 (second compound 1 µM): 1080 nM | IC50 (second compound 3.16 µM): < 31.6 nM | IC50 (second compound 10 µM): 858 nM | viability, T/C [1]: 59.3% | viability, T/C [2]: 79.9% | viability, T/C [3]: 103% | viability, T/C [4]: 26.9% | viability, T/C [5]: 47.1% | viability, T/C [6]: 26.8% | viability, T/C [7]: 44.1% | viability, T/C [8]: 105% | viability, T/C [9]: 63.6% | viability, T/C [10]: 31.3% | viability, T/C [11]: 54.6% | viability, T/C [12]: 28.8% | viability, T/C [13]: 72.8% | viability, T/C [14]: 105% | viability, T/C [15]: 66% | viability, T/C [16]: 47.4% | viability, T/C [17]: 48.6% | viability, T/C [18]: 30.1% | viability, T/C [19]: 71% | viability, T/C [20]: 63.6% | viability, T/C [21]: 60.5% | viability, T/C [22]: 53.6% | viability, T/C [23]: 35% | viability, T/C [24]: 24.8% | viability, T/C [25]: 40% | viability, T/C [26]: 38.4% | viability, T/C [27]: 43.3% | viability, T/C [28]: 33.5% | viability, T/C [29]: 20.1% | viability, T/C [30]: 16% | viability, T/C [31]: 70.2% | viability, T/C [32]: 62.5% | viability, T/C [33]: 64.2% | viability, T/C [34]: 44.8% | viability, T/C [35]: 36.7% | viability, T/C [36]: 22.3%

Cc1cccc(N(C)C(=O)C2C(O)CCN2c2nc(C)cc(C(F)(F)F)c2C#N)c1 (stereo not drawn) + Cc1[nH]c2ccc(F)cc2c1-c1nc2c3cccnc3c3ncccc3c2[nH]1
IC50 (second compound 0.0316 µM): 3160 nM | IC50 (second compound 0.1 µM): > 10000 nM | IC50 (second compound 0.316 µM): > 10000 nM | IC50 (second compound 1 µM): > 10000 nM | IC50 (second compound 3.16 µM): < 31.6 nM | IC50 (second compound 10 µM): > 10000 nM | viability, T/C [1]: 89% | viability, T/C [2]: 77.5% | viability, T/C [3]: 89.5% | viability, T/C [4]: 39.3% | viability, T/C [5]: 61.9% | viability, T/C [6]: 61% | viability, T/C [7]: 76.3% | viability, T/C [8]: 90.3% | viability, T/C [9]: 81% | viability, T/C [10]: 57.7% | viability, T/C [11]: 79% | viability, T/C [12]: 69.2% | viability, T/C [13]: 71.4% | viability, T/C [14]: 85.8% | viability, T/C [15]: 97.8% | viability, T/C [16]: 48.6% | viability, T/C [17]: 77.5% | viability, T/C [18]: 72.4% | viability, T/C [19]: 62.8% | viability, T/C [20]: 65.3% | viability, T/C [21]: 72.4% | viability, T/C [22]: 54.9% | viability, T/C [23]: 49.9% | viability, T/C [24]: 54.2% | viability, T/C [25]: 37.2% | viability, T/C [26]: 40.3% | viability, T/C [27]: 54.2% | viability, T/C [28]: 48.6% | viability, T/C [29]: 39.1% | viability, T/C [30]: 41.3% | viability, T/C [31]: 65.1% | viability, T/C [32]: 58.8% | viability, T/C [33]: 80.8% | viability, T/C [34]: 55.1% | viability, T/C [35]: 81% | viability, T/C [36]: 56.4%

Cn1ncnc1[C@H]1c2n[nH]c(=O)c3cc(F)cc(c23)N[C@@H]1c1ccc(F)cc1 + Cc1[nH]c2ccc(F)cc2c1-c1nc2c3cccnc3c3ncccc3c2[nH]1
IC50 (second compound 0.0316 µM): 29.3 nM | IC50 (second compound 0.1 µM): 77.7 nM | IC50 (second compound 0.316 µM): 34.5 nM | IC50 (second compound 1 µM): 82.7 nM | IC50 (second compound 3.16 µM): < 0.999 nM | IC50 (second compound 10 µM): 86.6 nM | viability, T/C (second compound 0.0316 µM, first compound 0.000999 µM): 49.4% | viability, T/C (second compound 0.0316 µM, first compound 0.00316 µM): 88% | viability, T/C (second compound 0.0316 µM, first compound 0.00999 µM): 94.7% | viability, T/C [1]: 48% | viability, T/C (second compound 0.0316 µM, first compound 0.0999 µM): 46.8% | viability, T/C [3]: 39.2% | viability, T/C (second compound 0.1 µM, first compound 0.000999 µM): 82.3% | viability, T/C (second compound 0.1 µM, first compound 0.00316 µM): 110% | viability, T/C (second compound 0.1 µM, first compound 0.00999 µM): 85% | viability, T/C [7]: 59% | viability, T/C (second compound 0.1 µM, first compound 0.0999 µM): 54.2% | viability, T/C [9]: 30.8% | viability, T/C (second compound 0.316 µM, first compound 0.000999 µM): 64.6% | viability, T/C (second compound 0.316 µM, first compound 0.00316 µM): 102% | viability, T/C (second compound 0.316 µM, first compound 0.00999 µM): 68.7% | viability, T/C [13]: 51.8% | viability, T/C (second compound 0.316 µM, first compound 0.0999 µM): 50.9% | viability, T/C [15]: 35.7% | viability, T/C (second compound 1 µM, first compound 0.000999 µM): 35.3% | viability, T/C (second compound 1 µM, first compound 0.00316 µM): 76.3% | viability, T/C (second compound 1 µM, first compound 0.00999 µM): 63.1% | viability, T/C [19]: 68.7% | viability, T/C (second compound 1 µM, first compound 0.0999 µM): 47.9% | viability, T/C [21]: 38.4% | viability, T/C (second compound 3.16 µM, first compound 0.000999 µM): 36% | viability, T/C (second compound 3.16 µM, first compound 0.00316 µM): 36.9% | viability, T/C (second compound 3.16 µM, first compound 0.00999 µM): 43.2% | viability, T/C [25]: 37.5% | viability, T/C (second compound 3.16 µM, first compound 0.0999 µM): 35.5% | viability, T/C [27]: 25.3% | viability, T/C (second compound 10 µM, first compound 0.000999 µM): 62.5% | viability, T/C (second compound 10 µM, first compound 0.00316 µM): 47% | viability, T/C (second compound 10 µM, first compound 0.00999 µM): 62.2% | viability, T/C [31]: 57.9% | viability, T/C (second compound 10 µM, first compound 0.0999 µM): 46.5% | viability, T/C [33]: 36.4%

O=C(c1cc(Cc2n[nH]c(=O)c3ccccc23)ccc1F)N1CCN(C(=O)C2CC2)CC1 + Cc1[nH]c2ccc(F)cc2c1-c1nc2c3cccnc3c3ncccc3c2[nH]1
IC50 (second compound 0.0316 µM): 305 nM | IC50 (second compound 0.1 µM): 3060 nM | IC50 (second compound 0.316 µM): 2690 nM | IC50 (second compound 1 µM): 5550 nM | IC50 (second compound 3.16 µM): < 31.6 nM | IC50 (second compound 10 µM): 3280 nM | viability, T/C [1]: 103% | viability, T/C [2]: 79.4% | viability, T/C [3]: 46.5% | viability, T/C [4]: 58.6% | viability, T/C [5]: 50.4% | viability, T/C [6]: 40.6% | viability, T/C [7]: 100% | viability, T/C [8]: 96.5% | viability, T/C [9]: 65.2% | viability, T/C [10]: 43.7% | viability, T/C [11]: 67.6% | viability, T/C [12]: 36.9% | viability, T/C [13]: 90.1% | viability, T/C [14]: 75.3% | viability, T/C [15]: 66.7% | viability, T/C [16]: 61.6% | viability, T/C [17]: 53.7% | viability, T/C [18]: 32.4% | viability, T/C [19]: 60.6% | viability, T/C [20]: 65.7% | viability, T/C [21]: 65.6% | viability, T/C [22]: 57.9% | viability, T/C [23]: 63.4% | viability, T/C [24]: 37% | viability, T/C [25]: 39.4% | viability, T/C [26]: 40.7% | viability, T/C [27]: 43.5% | viability, T/C [28]: 43.3% | viability, T/C [29]: 31.6% | viability, T/C [30]: 29.9% | viability, T/C [31]: 34.6% | viability, T/C [32]: 64.9% | viability, T/C [33]: 57.3% | viability, T/C [34]: 41.9% | viability, T/C [35]: 54% | viability, T/C [36]: 33%
